Laboratory results reported in patent US20240262878A1, “PHOTOACTIVATABLE GASDERMIN PROTEINS” (THE BOARD OF TRUSTEES OF THE UNIVERSITY OF ILLINOIS, priority 2021, published 2024).
“Also recorded” adds a separate entry of the source.

T1: GSDMD pores (Homo sapiens, UniProt P57764)
T1 construct: His-SUMO (N, cleaved yes); made in house; host or cells: E. coli BL21
T1 sequence (P57764 1-275 limits assumed): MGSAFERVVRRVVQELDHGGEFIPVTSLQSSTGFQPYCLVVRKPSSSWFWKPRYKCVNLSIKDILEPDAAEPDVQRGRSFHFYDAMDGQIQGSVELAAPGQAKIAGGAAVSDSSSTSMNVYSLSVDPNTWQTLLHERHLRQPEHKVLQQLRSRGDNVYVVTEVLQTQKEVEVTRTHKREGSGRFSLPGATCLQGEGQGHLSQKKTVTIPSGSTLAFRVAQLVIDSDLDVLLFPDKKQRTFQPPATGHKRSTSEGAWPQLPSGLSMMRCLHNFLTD


What was measured:
[1] = target: T1, GSDMD pores; experiment: Free-standing planar lipid bilayer electrophysiology of reconstituted GSDMD pores; type: biochemical; conditions: for single pore activity / pore dynamics profile: lipid in POPE/POPC bilayer; for time to observe GSDMD protein-membrane interaction, in words: lipid in bilayer compared to baseline or PIP2 bilayer
Method: Protein Purification. Plasmid encoding the full length human GSDMD with a N-terminal His-SUMO tag was transformed into E. coli BL21 strain. The cultures were grown at 37° C. until OD600 0.8, and protein expression was induced with 0.2 mM isopropyl β-D-1-thiogalactopyranoside (IPTG) overnight at 20° C. The cells were harvested by centrifugation and the pellet was resuspended in 20 mM Tris buffer, pH 7.5, 50 mM NaCl, 5 mM imidazole, 20 mM MgCl2, 10 mM KCl, 0.5 mM TCEP, 0.1 mM protease inhibitor, and DNase I. After resuspension, cells were disrupted by high-pressure and centrifuged at 30,000 g at 4° C. for 1 hour. The supernatant was incubated for 2 hours at room temperature with pre-equilibrated Ni-NTA affinity resin (Thermo Scientific) and then passed through a column for gravity flow purification. The column was washed with 20 column volumes of resuspension buffer, and the fusion protein was eluted with three column volumes of the same buffer with 250 mM imidazole. SUMO-tag cleavage was achieved by addition of ULP1 protease to the solution and subsequent dialysis overnight at 4° C. against 20 mM Tris buffer, pH 7.5, 50 mM NaCl, 0.5 mM TCEP. GSDMD was eluted from a second round of purification through pre-equilibrated Ni-NTA affinity resin. The protein was further purified by HI-TRAP® Q ion-exchange resin and a SUPERDEX® 75 gel filtration column (GE Healthcare) pre-equilibrated with 20 mM Tris buffer, pH 7.5, 50 mM NaCl, 0.5 mM TCEP. The purified protein was concentrated to 20 mg/ml and frozen at −80° C.
Free-Standing Lipid Bilayer Formation and Electrophysiology. For the lipid bilayer, a bilayer chamber with a polystyrene cuvette was used. In addition, the folding method, which is based on Langmuir-Blodgett film formation (Kroemer et al. (2009) Cell Death Differ. 16:3-11; Weavers et al. (2016) Cell 165:1658-1671) was employed. Monolayers that were spread in the air-water interface were faced at the chamber hole (Bergsbaken & Fink (2009) Nat. Rev. Microbiol. 7:99-109; Mulvihill et al. (2018) EMBO J. 37 (14): e98321). In brief, a shallow trough made of polystyrene was filled with recording solution, and the surface was separated into two parts by one of the cuvette walls. Bilayers were formed by monolayers of 1:3 1-palmitoyl-2-oleoylphosphatidylethanolamine (POPE)/1-palmitoyl-2-oleoylphosphatidylcholine (POPC) (Avanti-lipids) in pentane; where appropriate, phosphoinositides of the indicated headgroup were introduced with di-oleoyl (18:1) fatty acid chains at 10% relative concentration. A small amount of phospholipid, dispersed in pentane solution, was dropped on one of the water surfaces and as pentane evaporated, the lipid molecules remained at the air-water interface. The movements of the lipid molecules became less vigorous, and eventually the lipid molecules packed together to form a monolayer. For the formation of the planar lipid bilayer by the folding method, a monolayer was formed at the air-water interface in each compartment. Upon raising the recording solution level by adding more solution, the monolayer ran up on the cuvette surface and passed through the hole, where the two monolayers from both sides encountered each other and formed a bilayer. The membrane formed by this method has been referred to as a “solvent-free” membrane. The advantage of this method over other methods, like the painting method, is the capacity to form an asymmetrical membrane in which the lipid composition of either leaflet is arbitrarily defined (Kayagaki et al. (2015) Nature 526: 666-671). Once formed, the membrane retains this asymmetry for a long time because the flip-flop or exchange of the lipid molecules between both leaflets of the membrane is very slow.
For incorporation of the GSDMD into the lipid bilayer, 2 μM of the purified GSDMD protein was added to the cis side chamber along with 2 μM of caspase 1. The specific membrane capacitance of the membrane formed by the folding method was 0.6-0.8 μF/cm^2. […]

[2] = tested on: Hela cells; experiment: Optogenetic activation of PhoDer, membrane-targeted jRCaMP1b calcium flare imaging and fluctuation analysis; type: cell-based; conditions: PhoDer mutants in live Hela cells vs PhoDer
Method: Cloning. Cloning and subcloning were performed using the DH5a strain of E. coli. All mammalian constructs were cloned into the pcDNA3.0 vector with a modified multiple cloning site. Plasmids were generated as follows. Gasdermin D gene was obtained from Addgene. A diffusible optogenetic GSDMD, referred to herein as “PhoDer” and set forth in SEQ ID NO: 33, was constructed according to the reported domains structure by ligating three fragments into the pcDNA3.0 vector in one reaction via Gibson Assembly (New England BioLabs). For each fragment, PCR was specifically designed to create appropriate complementation. The jRCaMP1b gene, encoding a sensitive red protein calcium indicator, was obtained from Addgene. Membrane targeted calcium indicator jRCaMP1b was constructed by ligating a PCR fragment of the calcium indicator into the restriction enzyme sites BamHI and EcoRI in a modified pcDNA3.0 vector carrying a 5′ fragment encoding the N-terminal Lyn kinase localization sequence.
Cell Culture. HeLa and RAW264.7 cells were maintained in Dulbecco's Modified Eagle Medium (DMEM) medium supplemented with 10% fetal bovine serum (FBS) and 1% penicillin and streptomycin. Cells were transfected at 50%-70% confluency using LIPOFECTAMINE® 2000 transfection reagent and incubated for 24 hours before imaging. Cells were never serum-starved. To examine endogenous inflammatory activation, RAW264.7 cells were treated with 100 ng/μL lipopolysaccharide (LPS, Invivogen) at the beginning of each experiment. Pretreatment to bias membrane composition by phosphatidylinositol 4,5-bisphosphate (PIP2) modifying enzymes was performed by incubating Hela cells in Hanks' Balanced Salt Solution (HBSS) buffer with inhibitors at 37° C. for 10 minutes to prior imaging at the following concentrations: for phosphoinositide 3-kinase (PI3K), cells were treated 10 μM wortmannin (Tocris); and for phospholipase C (PLC), cells were treated with 10 μM U73122 (Tocris). Cells were removed from the incubator and allowed to come to thermal equilibrium before being imaged in HBSS buffer at room temperature.
Fluorescence Imaging, Optogenetic Activation, and Post-Processing. All epifluorescence imaging was performed on a customized Nikon Ti2-E microscope equipped with individual control over excitation (EX) and emission (EM) filters, a fast LED light source (Lumencor) with fluid-cooled EMCCD (Andor), motorized stage, and examined under a 40× or 100× oil immersion objective under live focus tracking. For RFP, excitation (EX) and emission (EM) filter combinations (maxima/bandwidth in nm) are indicated. Cells were imaged at 12-15 second intervals. Emission intensities of individual cells were background-subtracted before normalization to zero time point, when optogenetic activation began. In the optical setup, optogenetic activation of PhoDer was performed using an EX filter at 440/20 nm for 20-30 ms across whole fields of view. This replicated the progression of endogenous activation of GSDMD observed in LPS-stimulated RAW264.7 cells. […] Where applicable, inhibitors were treated at the indicated concentration for 15 minutes prior to imaging.
Fluctuation Analysis and Quantification. To automate the objective isolation and quantitation of calcium flares, a post-processing algorithm was developed based on principles and normalization scheme detailed in work on photochromic stochastic optical fluctuation imaging (pcSOFI) (Dedecker et al. (2012) Proc. Natl. Acad. Sci. USA 109: 10909-10914). Briefly, fluctuation caused by the flares generate high autocorrelation signals in time-averaged series and yield high contrast at locales of the greatest ion flux. To truly reflect the local flux change, it is then normalized to remove dependence on the number of biosensors reporting at the given location using a scheme detailed previously (Mo et al. (2017) Nat. Methods 14 (4): 427-434). […]

[3] = lipid at 10% in POPE/POPC bilayer
[4] = lipid at 10% in POPE/POPC bilayer vs baseline

Row | Molecule | mean current of pores [1, 3] [pA] | dwell time (open duration) of pores [1, 4] | single pore activity / pore dynamics profile [1] | time to observe GSDMD protein-membrane interaction, in words [1] | pore opening/closing dynamics (automated flare quantification) [2] | other results
1 | phosphatidylinositol triphosphate [PIP3] | 20.5 | significantly shorter-lived; also recorded: apparently short dwell time | kept GSDMD pores predominantly in the open state | remained as rapid as with PIP2 |  | time to observe GSDMD protein-membrane interaction, in words ([1]; listed as PI(3,4,5)P3 (PIP3)): significantly shortened
2 | phosphatidylinositol 4,5-bisphosphate [PIP2] | 20 | similarly distributed; also recorded: similar |  | significantly shortened |  | time to observe protein-membrane interaction [1, 3]: 2.4 ± 0.5 min; effect on open probability of pores [1, 4]: did not affect the open probability; increase in open/close events [1, 4]: 57 fold
3 | diacylglycerol [DAG] |  |  | no single pore activity was detected |  |  | 
4 | cardiolipin [cardiolipin (CL)] |  |  | supported a pore dynamics profile similar to that of PIP2 |  |  | 
5 | m1: PhoDer mutant K51Q/R53Q/K55Q (SEQ ID NO:34) (protein) MGSAFERVVRRVVQELDHGGEFIPVTSLQSSTGFQPYCLVVRKPSSSWFWQPQYQCVNLSIKDILEPDAAEPDVQRGRSFHFYDAMDGQIQGSVELAAPGQAKIAGGAAVSDSSSTSMNVYSLSVDPNTWQTLLHERHLRQPEHKVLQQLRSRGDNVYVVTEVLQTQKEVEVTRTHKREGSGRFSLPGATCLQGEGQGHLSQKKTVTIPSGSTLAFRVAQLVIDSDLDVLLFPDKKQRTFQPPATGHKRSTSEGAWPQLPSGLSMMRCLHNGGGSVIPDYFKQSFPEGYSWERSMTYEDGGICIATNDITMEGDSFINKIHFKGTNFPPNGPVMQKRTVGWEASTEKMYERDGVLKGDVKMKLLLKGGGHYRCDYRTTYKVKQKPVKLPDYHFVDHRIEILSHDKDYNKVKLYEHAVARNSTDSMDELYKGGSGGMVSKGEETITSVIKPDMKNKLRMEGNVNGHAFVIEGEGSGKPFEGIQTIDLEVKEGAPLPFAYDILTTAFHYGNRVFTKYPRGGGVPAEGAFTEDFQGLRAEVETISKELELLDRELCQLLLEGLEGVLRDQLALRALEEALEQGQSLGPVEPLDGPAGAVLECLVLSSGMLVPELAIPVVYLLGALTMLSETQHKLLAEALESQTLLGPLELVGSLLEQSAPWQERSTMSLPPGLLGNSWGEGAPAWVLLDECGLELGEDTPHVCWEPQAQGRMCALYASLALLSGLSQEPH |  |  |  |  | significantly reduced pore opening/closing dynamics; also recorded: significant changes in pore activity | 
6 | m2: PhoDer mutant K51E/R53E/K55E (SEQ ID NO:35) (protein) MGSAFERVVRRVVQELDHGGEFIPVTSLQSSTGFQPYCLVVRKPSSSWFWEPEYECVNLSIKDILEPDAAEPDVQRGRSFHFYDAMDGQIQGSVELAAPGQAKIAGGAAVSDSSSTSMNVYSLSVDPNTWQTLLHERHLRQPEHKVLQQLRSRGDNVYVVTEVLQTQKEVEVTRTHKREGSGRFSLPGATCLQGEGQGHLSQKKTVTIPSGSTLAFRVAQLVIDSDLDVLLFPDKKQRTFQPPATGHKRSTSEGAWPQLPSGLSMMRCLHNGGGSVIPDYFKQSFPEGYSWERSMTYEDGGICIATNDITMEGDSFINKIHFKGTNFPPNGPVMQKRTVGWEASTEKMYERDGVLKGDVKMKLLLKGGGHYRCDYRTTYKVKQKPVKLPDYHFVDHRIEILSHDKDYNKVKLYEHAVARNSTDSMDELYKGGSGGMVSKGEETITSVIKPDMKNKLRMEGNVNGHAFVIEGEGSGKPFEGIQTIDLEVKEGAPLPFAYDILTTAFHYGNRVFTKYPRGGGVPAEGAFTEDFQGLRAEVETISKELELLDRELCQLLLEGLEGVLRDQLALRALEEALEQGQSLGPVEPLDGPAGAVLECLVLSSGMLVPELAIPVVYLLGALTMLSETQHKLLAEALESQTLLGPLELVGSLLEQSAPWQERSTMSLPPGLLGNSWGEGAPAWVLLDECGLELGEDTPHVCWEPQAQGRMCALYASLALLSGLSQEPH |  |  |  |  | significantly reduced pore opening/closing dynamics; also recorded: significant changes in pore activity | 
